Experimental data reported in patent US20080057055A1, “OLD-35 as an inflammatory agent” (priority 2004, published 2008).

Legend:
Format in all cases: cell-based, human
[1] = system: hPNPase^OLD-35 and Myc proteins; test: Western blot after IFN-β treatment or siRNA
[2] = system: HO-1 cells; test: MTT cell viability assay; details: HO-1 clones, more pronounced after 6 days
Method: (§1) Transfection of siRNA: Cells (5×10^5) were plated in a 6 cm dish and the next day were transfected with 25 nM of either control siRNA or c-myc siRNA (Ambion; catalogue# 4250) using Lipofectamine 2000 (Invitrogen) according to the Manufacturer's protocol. After 24 h, the cells were trypsinized and seeded into 96-well plates for cell viability assays and 6-cm dishes for colony formation assays and cell cycle analyses as described above.

[3] = system: HO-1 cells; test: Colony formation assay with IFN-β; details: HO-1 clones
Method: as §1

[4] = system: HO-1, WM-35, MeWo and FM-516 cells; test: Cell cycle analysis by flow cytometry after IFN-β; details: HO-1 clones, IFN-β 1000 U/ml
Method: Cell Cycle Analysis: Cells were harvested, washed in PBS and fixed overnight at −20° C. in 70% ethanol. The cells were treated with RNase A (1 mg/ml) at 37° C. for 30 min and then with propidium iodide (50 μg/ml). Cell cycle was analyzed using a FACScan flow cytometer and data were analyzed using CellQuest software (Becton Dickinson, San Jose, Calif.).

[5] = system: c-myc mRNA; test: Half-life of c-myc mRNA (Actinomycin D, Northern blot); details: HO-1 clones expressing the siRNA, compared to control untreated cells
Method: RNA Isolation and Northern Blot Analysis: Total RNA was extracted from cells using Qiagen RNeasy mini kit (Qiagen) according to the manufacturer's protocol and Northern blotting was performed as described (102). The cDNA probes used were a 400-bp fragment from human c-myc, a 500-bp fragment from hPNPase^old-35 and full-length human GAPDH.

## hPNPase^old-35-siRNA: lentivirus-expressed siRNA for hPNPase^old-35, sequence 5′ AACAAAACCTTCCCCTTCCCA 3′ (SEQ ID NO:40)
[1]; HO-1 clone 1 expressing the siRNA, IFN-β 1000 U/ml, 2 days
  inhibition in hPNPase^OLD-35 induction by IFN-β: ~100%
[1]; HO-1 clones 1, 4 and 5 expressing the siRNA
  ability to downregulate Myc in response to IFN-β: lost this ability
[2]
  response of siRNA expressing clones to IFN-β (MTT): significant resistance
[3]
  response of siRNA expressing clones to IFN-β-induced inhibition of colony formation: significant resistance
[4]
  response of siRNA expressing clones to growth inhibition by IFN-β (cell cycle): remarkable resistance
[5]
  half-life of c-myc mRNA after IFN-β: remained unchanged
